# Results: article PMC12704579, “New Anticancer 4‐Aryldihydropyrimidinone‐5‐Carboxylates Targeting Hsp90” (Chemical Biology & Drug Design, 2025)
# Read-outs that look alike come from different tables or passages of the source.
# How the values were obtained:
# [1] = Turbidometric solubility (Cyprotex); format: physicochemical; details: kinetic from dmso stock
# Description: (§1) All the selected analogues were calculated to be compliant with the Lipinski rule‐of‐five guidelines for oral bioavailability. Furthermore, in vitro ADME (absorption, distribution, metabolism, excretion) properties were assessed as an outsourced service (Cyprotex Discovery Ltd., UK; part of the EvoTec Group); profiling membrane permeability (Caco‐2 cell model), hERG channel cardiotoxicity, human microsomal stability and turbidometric solubility (Table 4).
# hERG channel = biological target: T1, hERG channel (Homo sapiens, UniProt Q12809); experiment: hERG channel cardiotoxicity assay (Cyprotex)
# T1 construct: Cyprotex Discovery Ltd., UK
# Description: as §1
# [2] = Caco-2 membrane permeability (Cyprotex); format: in vitro ADME; details: human, Caco-2
# Description: as §1
# Caco-2 cell model = experiment: Caco-2 membrane permeability (Cyprotex); format: in vitro ADME
# Description: as §1
# [3] = biological target: T2, Recombinant human Hsp90 alpha protein (Homo sapiens, UniProt P07900); experiment: Transcreener ADP FP Hsp90 ATPase assay; format: biochemical; details: Recombinant human HSP90, 100 μM ATP; read-out: ATPase assay on rh-Hsp90 IC50
# T2 construct: human full‐length protein, expressed in Escherichia coli; His tag (C); purchased Abcam ab80369; host or cells: Escherichia coli
# Description: Transcreener ADP (cat. no. 3004‐1K) and ADP2 (cat. no. 3010‐1K) FP assay kits were obtained from Bellbrook Laboratories. Recombinant human Hsp90 alpha protein (active), human full‐length protein, expressed in Escherichia coli with > 90% purity and C‐terminus His tag, was purchased from Abcam (ab80369). All FP assays were carried out in black, 384‐well, low‐volume, polystyrene nonbinding microplates from Corning Life Sciences. All basic buffer components were obtained from Sigma‐Aldrich Chemical Co. 17‐AAG (Figure 1) was obtained from Abcam. Using the Transcreener ADP FP kit, the conditions for the recombinant human Hsp90 ATPase reaction were 50 mM HEPES (pH 7.4), 20 mM KCl, 2 mM EGTA, 4 mM MgCl2, and 0.01% Brij‐35 in a 10‐μL total assay volume. The final assay concentration of ATP was 100 μM for Hsp90. Due to the relatively low level of ATPase activity compared with other enzymes, the plate was incubated at 37°C and run over 1, 2 and 3 h time points. The reaction was stopped, and the ADP was detected by adding 10 μL of 50 mM HEPES (pH 7.4), 400 mM NaCl, 20 mM EDTA, 0.01% Brij35, 75 μg/mL anti‐ADP monoclonal antibody, and 4 nM ADP far red tracer. The plate was sealed, centrifuged at 600 g for 1 min, and left at room temperature for 1 h. FP readings for the Hsp90 ATPase Transcreener assays were performed on a Clariostar plate reader ([…]). A blank mP signal composed of protein, antibody, labelled ADP, but no ATP substrate gave similar mP values to those seen in the no‐protein controls. The upper limit of the assay window was defined by a no‐protein control, and the mP in the presence of heat shock protein was subtracted from this control to generate a change in polarisation (ΔmP), which was plotted on the activity graphs. Therefore, the data take into account the spontaneous hydrolysis of ATP. Each value is the mean of triplicate determinations with standard deviations (SD) shown. IC50 values were calculated using GraphPad Prism software with the nonlinear regression curve fitted to the log (inhibitor concentration) against the raw mP values on the linear portion of the standard curve.
# MDA-MB-231 cells = experiment: CellTiter-Blue cell viability assay, MDA-MB-231 (24 h); format: cell-based, human; details: for GI50 / viability at 10 µM: Homo sapiens, MDA-MB-231, 24 h; for GI50: 24 h incubation time
# Description: Human Embryonic Kidney cells (HEK‐293) and human breast cancer cells (MCF‐7, MDA‐MB‐231 and HCC1954) were cultured in complete growth media: […] 1X (Gibco); 10% v/v Fetal Bovine Serum (FBS, Sigma Dorset UK) and L‐glutamine (2 mM, Invitrogen). SW‐480‐WT cells were maintained in selective media made up of Dulbecco's Modified Eagle Medium (Gibco), enriched with […] of Geneticin Selective Antibiotic (G418 Sulfate; Gibco, Thermo Fisher). Cells were incubated at a 5% CO2 atmosphere at 37°C.
# (§2) Cells were cultured in 96‐well plates in 90 μL at a seeding density of 1 × 10^6 cells per well. Compound samples were prepared at different concentrations (1 mM, 100 μM, 10 μM, 1 μM, 100 nM, 10 nM) and 10 μL of each concentration was seeded in each well. Two different negative controls were used: DMSO 0.01% and 0.001%. Paclitaxel (30% w/v) was used as a positive control. Cells were treated for 24 h after which 20 μL of CellTitre‐Blue reagent (Promega, Southampton, UK) was added and incubated for 2 h at 37°C in 5% CO2. Fluorescence was measured at 560/590 nm on a Fluorostar Optima plate reader (BMG Labtech, Bucks, UK). Assay end points were normalised to 0% (DMSO only) and fitted to a semilog plot using at least n = 3 technical replicates (n = 6 for DMSO control and paclitaxel control) and N = 3 independent replicates. The curve fit was performed using the GraphPad Prism software and the standard Hill equation.
# In view of previous reports on Hsp90 inhibitors and their effects on cancer cell viability (Eachkoti et al. [2014]) and clonogenicity (Kinzel et al. [2016]), new compounds were tested for inhibition of cell viability within both non‐tumourigenic (HEK‐293) and breast cancer cell lines (MDA‐MB‐231) at a fixed concentration of 10 μM. The well‐established CellTiter‐Blue endpoint assay was used to assess cell viability. New compounds were also assessed in a colony forming assay (MCF‐7 breast cancer cell line), used as an efficacy screening to provide an indication of the inhibition of clonogenicity for these small molecules (Table 1).
# [4] = system: HCC1954, MCF-7 and HEK-293 cells; experiment: Growth inhibition assay (CellTitre-Blue endpoint), 72 h incubation; format: cell-based, human; details: paclitaxel positive control, Figure 3
# Description: as §2, with “equation. […]” for “equation.”
# FIGURE 3 Growth inhibition assay (CellTitre‐Blue endpoint) in human breast cancer cell lines HCC1954 and MCF‐7, and non‐tumorigenic HEK‐293 cells for hit compounds 5d and 5e (72 h incubation). Growth inhibition is represented by the percentage of relative fluorescence units standardised to DMSO control. […]
# [5] = read-out: Solubility - estimated precipitation range, Calc. mid-range
# [6] = read-out: Solubility - estimated precipitation range, Lower-bound
# [7] = read-out: Solubility - estimated precipitation range, Upper-bound
# [8] = CellTiter-Blue, 24 h incubation, 10 μM test compound, standardised to DMSO control
# T1 sequence (Q12809 whole entry): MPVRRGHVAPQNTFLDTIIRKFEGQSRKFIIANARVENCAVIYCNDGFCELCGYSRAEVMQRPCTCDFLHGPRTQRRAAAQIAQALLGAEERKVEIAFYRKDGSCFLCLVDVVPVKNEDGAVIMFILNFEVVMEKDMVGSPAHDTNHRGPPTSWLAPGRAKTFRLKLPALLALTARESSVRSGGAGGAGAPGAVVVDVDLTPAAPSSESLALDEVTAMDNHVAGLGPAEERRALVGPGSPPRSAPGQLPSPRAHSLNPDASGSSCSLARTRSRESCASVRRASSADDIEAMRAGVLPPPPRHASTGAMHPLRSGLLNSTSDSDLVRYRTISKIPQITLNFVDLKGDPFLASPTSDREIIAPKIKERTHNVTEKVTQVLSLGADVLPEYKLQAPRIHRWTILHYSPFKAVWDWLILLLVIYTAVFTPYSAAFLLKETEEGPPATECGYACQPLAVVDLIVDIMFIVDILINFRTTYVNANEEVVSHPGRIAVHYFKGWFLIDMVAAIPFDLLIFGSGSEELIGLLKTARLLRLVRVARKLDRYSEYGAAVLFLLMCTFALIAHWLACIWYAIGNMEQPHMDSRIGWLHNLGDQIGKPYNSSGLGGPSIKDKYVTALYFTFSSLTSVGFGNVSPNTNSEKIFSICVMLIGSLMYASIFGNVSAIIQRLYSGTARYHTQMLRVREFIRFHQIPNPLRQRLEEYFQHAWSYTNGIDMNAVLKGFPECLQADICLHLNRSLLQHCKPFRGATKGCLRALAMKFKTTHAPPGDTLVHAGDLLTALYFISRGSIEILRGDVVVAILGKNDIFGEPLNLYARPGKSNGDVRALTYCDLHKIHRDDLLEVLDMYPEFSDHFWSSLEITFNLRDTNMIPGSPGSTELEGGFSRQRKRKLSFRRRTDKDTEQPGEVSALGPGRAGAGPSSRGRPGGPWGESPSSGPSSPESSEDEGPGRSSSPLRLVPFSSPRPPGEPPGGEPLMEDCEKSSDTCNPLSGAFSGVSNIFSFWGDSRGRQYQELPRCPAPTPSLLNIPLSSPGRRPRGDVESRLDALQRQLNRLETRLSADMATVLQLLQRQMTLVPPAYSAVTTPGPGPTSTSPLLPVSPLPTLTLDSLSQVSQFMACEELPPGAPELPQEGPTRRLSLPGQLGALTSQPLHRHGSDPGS
"solubility [1, 5] [µM]","solubility [1, 6] [µM]","solubility [1, 7] [µM]",efflux ratio [2],Caco-2 permeability Efflux ratio (Caco-2 cell model),IC50 [3] [µM],GI50 (MDA-MB-231 cells) [µM],Compound,IC50 (hERG channel) [µM],viability at 10 µM (MDA-MB-231 cells; [8]) [%],"Growth inhibitory effect / effect on cell viability, longer incubation [4]","% Viability (MDA-MB-231, 10 μM) (MDA-MB-231 cells; CellTiter-Blue, 24 h incubation, 10 μM test compound, standardised to DMSO control, 10 µM) [%]"
3.75,1,6.5,> 2,2.26,3.25,79.3,"COc1ccc(C2NC(=O)NC(C)=C2C(=O)OCc2ccc3c(c2)OCO3)c(F)c1 (stereo not drawn) [Compound 5d, Benzo[d][1,3]dioxol‐5‐ylmethyl‐4‐(2‐Fluoro‐4‐Methoxyphenyl)‐6‐Methyl‐2‐Oxo‐1,2,3,4‐Tetrahydropyrimidine‐5‐Carboxylate]",> 25,86.3 ± 3.8,devoid of significant effects on cell viability,–
65,30,100,> 2,2.74,6.4,12.6,"COc1ccc(COC(=O)C2=C(C)NC(=O)NC2c2ccc(Cl)cc2)cc1C (stereo not drawn) [Compound 5e, 4‐Methoxy‐3‐Methylbenzyl‐4‐(4‐Chlorophenyl)‐6‐Methyl‐2‐Oxo‐1,2,3,4‐Tetrahydropyrimidine‐5‐Carboxylate]",> 25,< 80,comparable to the cytotoxic drug control paclitaxel,79.43 ± 8.8
